Measurements taken from US12686673B2 (Blueprint Medicines Corporation, priority 2020, dated 2026).

How the values were obtained:
Type in all cases: cell-based
[1] = target: EGFR(D770_N771insSVD) expressing Ba/F3 stable cell line (Homo sapiens, UniProt P00533, DUP768-770, cells depend on it); experiment: Cellular proliferation (Alamar Blue) assay, EGFR D770_N771insSVD Ba/F3; conditions: 72 hr, read-out: D770 IC50
Summary of the method: (§1)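 Alamar Blue read-out, 3 h at 37 °C, after 72 hr compound exposure of Ba/F3 transfectants (15,000 cells/well, RPMI + 10% FBS, plated 16-18 h earlier).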

[2] = target: EGFR (A767_dupASV) expressing Ba/F3 stable cell line (Homo sapiens, UniProt P00533, DUP767-769, cells depend on it); experiment: Cellular proliferation (Alamar Blue) assay, EGFR A767_dupASV Ba/F3; conditions: 72 hr, read-out: A767 IC50
Sequence of EGFR (A767_dupASV) expressing Ba/F3 stable cell line (P00533 with tags, fused parts or gaps DUP767-769): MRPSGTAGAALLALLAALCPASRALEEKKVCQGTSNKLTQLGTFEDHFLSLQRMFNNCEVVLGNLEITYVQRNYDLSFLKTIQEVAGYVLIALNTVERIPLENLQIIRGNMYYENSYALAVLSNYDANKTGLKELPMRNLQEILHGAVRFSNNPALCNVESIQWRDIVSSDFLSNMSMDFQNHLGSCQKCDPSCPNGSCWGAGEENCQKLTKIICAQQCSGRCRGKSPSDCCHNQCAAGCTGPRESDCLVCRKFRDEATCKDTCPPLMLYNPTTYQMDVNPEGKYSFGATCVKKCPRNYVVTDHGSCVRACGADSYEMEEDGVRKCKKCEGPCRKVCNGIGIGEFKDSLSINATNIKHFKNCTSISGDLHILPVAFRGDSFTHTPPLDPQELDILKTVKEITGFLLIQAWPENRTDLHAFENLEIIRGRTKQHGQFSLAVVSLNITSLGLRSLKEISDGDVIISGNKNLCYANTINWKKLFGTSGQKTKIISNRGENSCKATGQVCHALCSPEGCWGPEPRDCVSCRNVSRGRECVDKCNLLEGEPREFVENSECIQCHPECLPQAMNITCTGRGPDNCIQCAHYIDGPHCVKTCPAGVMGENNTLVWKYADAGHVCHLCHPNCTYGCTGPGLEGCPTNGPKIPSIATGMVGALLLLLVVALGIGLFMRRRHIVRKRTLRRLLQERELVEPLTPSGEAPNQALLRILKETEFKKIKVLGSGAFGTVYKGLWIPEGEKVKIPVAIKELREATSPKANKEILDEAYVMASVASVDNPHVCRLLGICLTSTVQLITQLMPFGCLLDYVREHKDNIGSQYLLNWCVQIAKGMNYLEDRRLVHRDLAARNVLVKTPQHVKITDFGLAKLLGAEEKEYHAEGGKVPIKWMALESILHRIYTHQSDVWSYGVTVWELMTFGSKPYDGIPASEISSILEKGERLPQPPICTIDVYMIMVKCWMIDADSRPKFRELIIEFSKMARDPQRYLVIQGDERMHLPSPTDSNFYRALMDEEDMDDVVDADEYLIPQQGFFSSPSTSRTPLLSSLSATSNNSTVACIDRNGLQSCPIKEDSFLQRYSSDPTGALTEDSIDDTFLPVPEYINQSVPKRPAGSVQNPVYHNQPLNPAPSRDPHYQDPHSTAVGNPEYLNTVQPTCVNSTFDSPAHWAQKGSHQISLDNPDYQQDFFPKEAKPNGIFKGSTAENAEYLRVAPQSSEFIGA
Summary of the method: as §1

A431 cells = experiment: Cellular proliferation (Alamar Blue) assay, A431; conditions: Homo sapiens, A-431; A431 cells, Alamar Blue, 72 hr; read-out: A431 IC50
[3] = target: HER2 (A775_G776insYVMA) expressing Ba/F3 stable cell line (Homo sapiens, UniProt P04626, DUP772-775, cells depend on it); experiment: Cellular proliferation (Alamar Blue) assay, HER2 A775_G776insYVMA Ba/F3; conditions: 72 hr, read-out: YVMA IC50
Sequence of HER2 (A775_G776insYVMA) expressing Ba/F3 stable cell line (P04626 with tags, fused parts or gaps DUP772-775): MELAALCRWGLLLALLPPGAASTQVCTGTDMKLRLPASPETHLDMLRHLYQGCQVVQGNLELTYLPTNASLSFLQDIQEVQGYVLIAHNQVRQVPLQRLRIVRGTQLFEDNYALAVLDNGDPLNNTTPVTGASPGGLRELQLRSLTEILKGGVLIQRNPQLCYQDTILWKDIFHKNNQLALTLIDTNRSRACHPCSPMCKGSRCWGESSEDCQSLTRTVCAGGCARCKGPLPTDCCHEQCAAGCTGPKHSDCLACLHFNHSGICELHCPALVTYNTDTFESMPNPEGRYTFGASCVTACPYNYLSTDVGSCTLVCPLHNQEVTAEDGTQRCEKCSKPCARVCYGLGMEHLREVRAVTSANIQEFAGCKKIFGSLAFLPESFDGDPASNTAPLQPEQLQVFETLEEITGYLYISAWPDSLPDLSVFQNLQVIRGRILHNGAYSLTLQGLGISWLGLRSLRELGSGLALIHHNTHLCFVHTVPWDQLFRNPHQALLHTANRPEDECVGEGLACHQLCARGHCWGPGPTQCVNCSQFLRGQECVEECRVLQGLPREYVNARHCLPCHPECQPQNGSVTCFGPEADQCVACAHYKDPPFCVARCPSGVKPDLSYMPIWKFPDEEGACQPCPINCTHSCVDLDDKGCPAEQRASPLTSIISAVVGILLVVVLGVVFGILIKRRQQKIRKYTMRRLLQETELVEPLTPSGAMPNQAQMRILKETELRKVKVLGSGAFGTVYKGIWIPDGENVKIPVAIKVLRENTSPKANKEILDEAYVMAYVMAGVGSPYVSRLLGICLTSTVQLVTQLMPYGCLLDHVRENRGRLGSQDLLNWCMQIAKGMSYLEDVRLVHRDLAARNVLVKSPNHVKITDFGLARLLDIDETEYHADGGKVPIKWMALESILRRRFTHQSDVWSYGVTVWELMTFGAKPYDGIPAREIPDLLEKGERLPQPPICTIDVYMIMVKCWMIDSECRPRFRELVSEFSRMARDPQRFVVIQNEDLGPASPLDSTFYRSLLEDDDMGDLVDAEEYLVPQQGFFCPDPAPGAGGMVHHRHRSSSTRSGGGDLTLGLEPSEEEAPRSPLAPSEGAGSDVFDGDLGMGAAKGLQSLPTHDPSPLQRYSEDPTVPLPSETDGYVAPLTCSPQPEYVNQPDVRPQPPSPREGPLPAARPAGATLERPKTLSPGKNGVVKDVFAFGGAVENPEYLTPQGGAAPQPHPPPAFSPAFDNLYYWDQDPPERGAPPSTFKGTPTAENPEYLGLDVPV
Description: • 1. EGFR(D770_N771insSVD) expressing Ba/F3 stable cell line • 2. EGFR (A767_dupASV) expressing Ba/F3 stable cell line • 3. A431 cells • 4. EGFR (H773insNPH) expressing Ba/F3 stable cell line • 5. HER2 (A775_G776insYVMA) expressing Ba/F3 stable cell line Assay Procedure: • 1. Seed cells at 5000 for A431 and 15,000 cells for Ba/F3 in 100 μL/well in complete media (for A431: DMEM with […] and for Ba/F3 cells: RPMI with 10% FBS) in 96-well tissue culture plate. Leave outer wells without cells for background measurements. Incubate at 37 degree Celsius in […] humidified incubator for 16-18 hours. • 2. Add 0.025 ml of 5× concentration compound dilution or DMSO control. Final compound concentration range is 10-0.0005 μM prepared in 3-fold serial dilutions. Incubate for 72 hr at 37 degree Celsius in […] humidified incubator. • 3. Add 0.0125 ml Alamar Blue™ reagent to each well with multi-channel pipette and tap gently on each side of the plate to mix. Incubate for 3 hours at 37 degree Celsius in 5% CO2 humidified incubator. • 4. […] Data analysis was performed using XLfit 5.5.0.5.

Sequence of EGFR(D770_N771insSVD) expressing Ba/F3 stable cell line (P00533 with tags, fused parts or gaps DUP768-770): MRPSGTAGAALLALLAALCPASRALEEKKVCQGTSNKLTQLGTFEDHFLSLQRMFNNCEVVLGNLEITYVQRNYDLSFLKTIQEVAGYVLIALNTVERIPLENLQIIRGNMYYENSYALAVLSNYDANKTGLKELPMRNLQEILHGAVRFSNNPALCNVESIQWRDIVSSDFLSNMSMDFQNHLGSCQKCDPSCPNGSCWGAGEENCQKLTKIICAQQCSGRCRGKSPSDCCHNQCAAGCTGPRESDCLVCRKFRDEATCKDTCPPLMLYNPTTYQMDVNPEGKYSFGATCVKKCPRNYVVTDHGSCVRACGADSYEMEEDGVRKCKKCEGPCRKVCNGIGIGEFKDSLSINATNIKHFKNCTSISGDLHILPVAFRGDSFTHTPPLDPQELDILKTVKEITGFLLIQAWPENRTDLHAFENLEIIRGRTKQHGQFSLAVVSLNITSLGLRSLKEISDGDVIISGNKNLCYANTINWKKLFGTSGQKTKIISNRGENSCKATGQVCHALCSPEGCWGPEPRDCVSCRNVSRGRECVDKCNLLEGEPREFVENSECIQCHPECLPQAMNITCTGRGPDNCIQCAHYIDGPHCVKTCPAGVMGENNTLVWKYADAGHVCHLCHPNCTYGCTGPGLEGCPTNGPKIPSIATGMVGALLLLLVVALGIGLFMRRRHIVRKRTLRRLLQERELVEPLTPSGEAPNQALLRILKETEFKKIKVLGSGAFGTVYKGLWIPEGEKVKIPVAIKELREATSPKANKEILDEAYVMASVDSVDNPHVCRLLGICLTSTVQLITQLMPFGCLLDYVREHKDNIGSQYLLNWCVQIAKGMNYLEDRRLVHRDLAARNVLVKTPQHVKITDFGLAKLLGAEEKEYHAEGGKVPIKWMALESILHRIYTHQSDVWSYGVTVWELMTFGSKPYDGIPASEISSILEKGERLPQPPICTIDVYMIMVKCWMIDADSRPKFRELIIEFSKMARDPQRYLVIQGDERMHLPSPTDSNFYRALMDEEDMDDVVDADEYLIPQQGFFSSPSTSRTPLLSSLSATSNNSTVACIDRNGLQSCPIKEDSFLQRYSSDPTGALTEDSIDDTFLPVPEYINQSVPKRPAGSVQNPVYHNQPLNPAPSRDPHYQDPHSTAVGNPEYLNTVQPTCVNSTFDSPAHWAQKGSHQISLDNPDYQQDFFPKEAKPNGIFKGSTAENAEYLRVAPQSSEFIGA

| Structure (SMILES) | GI50 [1] [µM] | GI50 [2] [µM] | IC50 (A431 cells) [µM] | GI50 [3] [µM] |
| --- | --- | --- | --- | --- |
| CN(C)C/C=C/C(=O)Nc1ccc(Cl)c(Nc2nc(Nc3cnn(C)c3)ncc2Cl)c1 [Compound 9, (E)-N-(4-chloro-3-((5-chloro-2-((1-methyl-1H-pyrazol-4-yl)amino)pyrimidin-4-yl)amino)phenyl)-4-(dimethylamino)but-2-enamide] | 9.48 | > 10 | 8.03 | 7.49 |
| C/C=C/C(=O)Nc1ccc(F)c(Nc2nc(Nc3cnn(C)c3)ncc2Cl)c1 [Compound 11, (E)-N-(3-((5-chloro-2-((1-methyl-1H-pyrazol-4-yl)amino)pyrimidin-4-yl)amino)-4-fluorophenyl)but-2-enamide] | > 10 | > 10 | > 10 | 4.72 |
| C=C(C)C(=O)Nc1ccc(F)c(Nc2nc(Nc3cnn(C)c3)ncc2Cl)c1 [Compound 12, N-(3-((5-chloro-2-((1-methyl-1H-pyrazol-4-yl)amino)pyrimidin-4-yl)amino)-4-fluorophenyl)methacrylamide] | > 10 | > 10 | > 10 | 7.03 |
| C=CC(=O)Nc1ccc(OC)c(Nc2nc(Nc3cnn(C)c3)ncc2Cl)c1 [Compound 13, N-(3-((5-chloro-2-((1-methyl-1H-pyrazol-4-yl)amino)pyrimidin-4-yl)amino)-4-methoxyphenyl)acrylamide] | > 10 | > 10 | > 10 | > 10 |
| C=CC(=O)Nc1ccc(F)c(Nc2nc(Nc3cnn(CCO)c3)ncc2Cl)c1 [Compound 15, N-(3-((5-chloro-2-((1-(2-hydroxyethyl)-1H-pyrazol-4-yl)amino)pyrimidin-4-yl)amino)-4-fluorophenyl)acrylamide] | 0.373 | 0.371 | 4.22 | 0.543 |
| CN(C)C/C=C/C(=O)Nc1ccc(F)c(Nc2nc(Nc3cnn(CCO)c3)ncc2Cl)c1 [Compound 16, (E)-N-(3-((5-chloro-2-((1-(2-hydroxyethyl)-1H-pyrazol-4-yl)amino)pyrimidin-4-yl)amino)-4-fluorophenyl)-4-(dimethylamino)but-2-enamide] | 9.06 | 8.84 | 9.04 | 1.7 |
| C=CC(=O)Nc1cccc(Nc2nc(Nc3cnn(C)c3)ncc2NS(=O)(=O)c2ccccc2)c1 [Compound 29, N-(3-((2-((1-methyl-1H-pyrazol-4-yl)amino)-5-(phenylsulfonamido)pyrimidin-4-yl)amino)phenyl)acrylamide] | > 10 | > 10 | > 10 | > 10 |
| C=CC(=O)Nc1ccc(F)c(Nc2nc(Nc3ccn(C)n3)ncc2Cl)c1 [Compound 30, N-(3-((5-chloro-2-((1-methyl-1H-pyrazol-3-yl)amino)pyrimidin-4-yl)amino)-4-fluorophenyl)acrylamide] | > 10 | 9.63 | > 10 | 2.64 |
| C=CC(=O)Nc1ccc(F)c(Nc2nc(Nc3ccnn3C)ncc2Cl)c1 [Compound 31, N-(3-((5-chloro-2-((1-methyl-1H-pyrazol-5-yl)amino)pyrimidin-4-yl)amino)-4-fluorophenyl)acrylamide] | 9.96 | 9.87 | 9.8 | 5.18 |
| C=CC(=O)Nc1cccc(Nc2nc(Nc3cnn(C)c3)ncc2NCc2ccccc2)c1 [Compound 32, N-(3-((5-(benzylamino)-2-((1-methyl-1H-pyrazol-4-yl)amino)pyrimidin-4-yl)amino)phenyl)acrylamide] | 0.824 | 0.885 | > 10 | 1.61 |
| C=CC(=O)Nc1ccc(F)c(Nc2nc(Nc3cnn(C)c3)ncc2C(F)(F)F)c1 [Compound 36, N-(4-fluoro-3-((2-((1-methyl-1H-pyrazol-4-yl)amino)-5-(trifluoromethyl)pyrimidin-4-yl)amino)phenyl)acrylamide] | 0.357 | 0.332 | 8.15 | 0.416 |
| C=CC(=O)Nc1ccc(F)c(Nc2nc(Nc3cnn(C)c3)ncc2NC(=O)c2ccccc2)c1 [Compound 50, N-(4-((5-acrylamido-2-fluorophenyl)amino)-2-((1-methyl-1H-pyrazol-4-yl)amino)pyrimidin-5-yl)benzamide] | 1.73 | 1.47 | > 10 | 8.62 |
| C=CC(=O)Nc1ccc(F)c(Nc2nc(Nc3cnn(C)c3)ncc2NS(=O)(=O)c2ccccc2)c1 [Compound 51, N-(4-fluoro-3-((2-((1-methyl-1H-pyrazol-4-yl)amino)-5-(phenylsulfonamido)pyrimidin-4-yl)amino)phenyl)acrylamide] | > 10 | > 10 | > 10 | > 10 |
| C=CC(=O)Nc1ccc(F)c(Nc2nc(Nc3cnn(C)c3)ncc2-c2ccc(N3CCOCC3)nc2)c1 [Compound 55, N-[4-fluoro-3-({2-[(1-methyl-1H-pyrazol-4-yl)amino]-5-[6-(morpholin-4-yl)pyridin-3-yl]pyrimidin-4-yl}amino)phenyl] prop-2-enamide] | 0.945 | 0.492 | > 10 | 1.87 |
| C=CC(=O)Nc1ccc(F)c(Nc2nc(Nc3cnn(C)c3)ncc2-c2cccc(NC(C)=O)c2)c1 [Compound 59, N-(3-((5-(3-acetamidophenyl)-2-((1-methyl-1H-pyrazol-4-yl)amino)pyrimidin-4-yl)amino)-4-fluorophenyl)acrylamide] | > 10 | > 10 | > 10 | ≥ 10 |
| C=CC(=O)Nc1ccc(F)c(Nc2nc(Nc3cnn(C)c3)ncc2-c2cccc(C(=O)NC)c2)c1 [Compound 60, 3-(4-((5-acrylamido-2-fluorophenyl)amino)-2-((1-methyl-1H-pyrazol-4-yl)amino)pyrimidin-5-yl)-N-methylbenzamide] | 7.94 | 7.65 | > 10 | 6.58 |

Now from value to compound:

| GI50 [1] [µM] | GI50 [2] [µM] | IC50 (A431 cells) [µM] | GI50 [3] [µM] | Structure (SMILES) |
| --- | --- | --- | --- | --- |
| 1.53 | 1.02 | 7.74 | 1.88 | CN(C)C/C=C/C(=O)Nc1cccc(Nc2nc(Nc3cnn(C)c3)ncc2CNc2ccccc2)c1 [Compound 17, (E)-4-(dimethylamino)-N-(3-((2-((1-methyl-1H-pyrazol-4-yl)amino)-5-((phenylamino)methyl)pyrimidin-4-yl)amino)phenyl)but-2-enamide] |
| > 10 | 7.16 | > 10 | > 10 | C=CC(=O)Nc1cccc(Nc2nc(Nc3cnn(C)c3)ncc2CN(C(C)=O)c2ccccc2)c1 [Compound 18] |
| > 10 | > 10 | > 10 | > 10 | C=CC(=O)Nc1cccc(Nc2nc(Nc3cnn(C)c3)ncc2CN(C(C)=O)C(C)c2ccccc2)c1 (centres unmarked) [Compound 19, N-(3-((2-((1-methyl-1H-pyrazol-4-yl)amino)-5-((N-(1-phenylethyl)acetamido)methyl)pyrimidin-4-yl)amino)phenyl)acrylamide] |
| 2.98 | 4.07 | 4.01 | 3.03 | CN(C)C/C=C/C(=O)Nc1cccc(Nc2nc(Nc3cnn(C)c3)ncc2NCc2ccccc2)c1 [Compound 33, (E)-N-(3-((5-(benzylamino)-2-((1-methyl-1H-pyrazol-4-yl)amino)pyrimidin-4-yl)amino)phenyl)-4-(dimethylamino)but-2-enamide] |
| > 10 | > 10 | > 10 | > 10 | CC(NC(=O)c1cnc(Nc2cnn(C)c2)nc1Nc1cccc(NC(=O)/C=C/CN(C)C)c1)c1ccccc1 (centres unmarked) [Compound 35, (E)-4-((3-(4-(dimethylamino)but-2-enamido)phenyl)amino)-2-((1-methyl-1H-pyrazol-4-yl)amino)-N-(1-phenylethyl)pyrimidine-5-carboxamide] |
| 8.85 | 7.08 | > 10 | > 10 | C=CC(=O)Nc1cccc(Nc2nc(Nc3cnn(C)c3)ncc2C(C)N(Cc2ccccc2)C(C)=O)c1 (centres unmarked) [Compound 47, N-(3-((5-(1-(N-benzylacetamido)ethyl)-2-((1-methyl-1H-pyrazol-4-yl)amino)pyrimidin-4-yl)amino)phenyl)acrylamide] |
| 8.8 | > 10 | > 10 | > 10 | C=CC(=O)Nc1cccc(Nc2nc(Nc3cnn(C)c3)ncc2CN(Cc2ccccc2)C(C)=O)c1 [Compound 48, N-(3-((5-((N-benzylacetamido)methyl)-2-((1-methyl-1H-pyrazol-4-yl)amino)pyrimidin-4-yl)amino)phenyl)acrylamide] |
